Activity calls are given as the source filed them. How the calls were made is not given here. Where a SMILES comes first, the peptide text is derived from it.

Here are results for 39 compounds from PubChem BioAssay AID504564 (Southern Research Specialized Biocontainment Screening …, 2011).

Assay [1] relates to M. tuberculosis H37Rv growth inhibition, no glycerol. The assay is described as follows: Mycobacterium tuberculosis H37Rv growth inhibition, absence of glycerol, confirmatory assay (AID 504564). The settings on record: for IC90: 90% growth inhibition concentration.
Assay in assay [2]: as above
The following applies: M. tuberculosis H37Rv growth inhibition, no glycerol; at 25 µM (top of the series).

The term IC50 denotes the concentration that gives 50% inhibition. By IC90 is commonly meant the point of the concentration-response curve where the effect stands at 90%. On to `CC(C)NC(=O)c1sc(=S)n2c1[nH]c(=O)c1ccc(C(=O)NCCc3ccc(Cl)cc3)cc12`, for which, in assay [1], the concentration for half-maximal inhibition (IC50) was 210 nM and the concentration for an effect of 90% (IC90) was 430 nM.
The corresponding values for `CCOC(=O)C(C)Sc1ncnc2c1nnn2-c1ccc(F)cc1` (stereo not given) are 450 nM and 4760 nM.
The corresponding values for `Cc1ccc(C(=O)N/N=C(/CC(=O)c2cccs2)C(F)(F)F)cc1` are 560 nM and 890 nM.
For `CC(=NCc1ccc2c(c1)OCO2)C1=C(O)c2ccccc2C1=O`, in that order: 70 nM and 600 nM.
For `CCOC(=O)c1ccc(NC(=O)Cn2ncc(Cl)c(Cl)c2=O)cc1`, in assay [1], the IC50 was 90 nM and the IC90 amounted to 280 nM.
The corresponding values for `Cc1nc(SCC(=O)NC2CCCCC2)[nH]c(=O)c1C` are 250 nM and 740 nM.
As to `Cc1cccc(-c2oc3ccc(-c4ccc5c(c4)OCO5)cc3c2C#Cc2cncn2C)c1`, in assay [1], the IC50 was 2220 nM and the concentration for an effect of 90% (IC90) is 2930 nM.
The corresponding values for `Cc1ccc2ccc3ccc(C)nc3c2n1` are 160 nM and 450 nM.
For `Cc1ccc(NC(=O)C2C3/C=C\CCCCC32)cc1C` (stereo not given), in that order: 1870 nM and above 25000 nM.
For `O=C(NCC(c1cccs1)N1CCOCC1)c1cc([N+](=O)[O-])cc([N+](=O)[O-])c1` (stereo not given), in that order: 150 nM and 310 nM.
On to `CCC(C)Nc1ccc(NC(C)CC)cc1` (stereo not given), for which, in assay [1], the IC50 is 590 nM and the IC90 was determined as 990 nM.
Regarding `O=C(CSc1nc2ccccc2c(=O)[nH]1)NCc1ccc(Cl)cc1`, in assay [1], the IC50 is 300 nM and the 90% effect concentration (IC90) was 660 nM.
As to `Cc1cc(Br)ccc1NC(=O)c1cnc(N2CCN(c3ccccn3)CC2)c2ccccc12`, in assay [1], the IC50 was 850 nM and the IC90 worked out at 2540 nM.
The corresponding values for `Cc1ccc2c(c1)c(C1=c3ccccc3=NC1=O)c(O)n2C` are 490 nM and 1500 nM.
For `CNc1nc(SCc2ccccc2Cl)nc2c1CCCC2`, in that order: 430 nM and 1060 nM.
For `CCc1ccc(/C=C2/C(=O)N(C)C(=S)N2CC(=O)OC)s1`, in assay [1], the IC50 was 460 nM and the IC90 came to 1910 nM.
The corresponding values for `CC[N+](C)(CC)CCCCOc1ccc2c(c1)C(=O)c1cc(OCCCC[N+](C)(CC)CC)ccc1-2` are 700 nM and 1200 nM.
For `CC1CCN(C(=O)C2CCN(c3nnc(-n4cccc4)s3)CC2)CC1`, in that order: 1150 nM and 2830 nM.
The corresponding values for `CCOC(=O)COc1ccc(/C=C2\NC(=S)N(CC)C2=O)cc1` are 1680 nM and 4460 nM.
For the compound `O=C(/C=C/c1ccccc1)N1CCN(CCN2C(=O)c3cccc4cccc(c34)C2=O)CC1`, in assay [1], the IC50 is 1520 nM and the IC90 worked out at 4020 nM.
On to `COC(=O)c1ccc(CNc2c(N3CCCC3)c(=O)c2=O)cc1`, for which, in assay [2], the growth inhibition was -5.07% (inactive).
As for `Cc1cccc(/C=C/C(=O)c2ccc([N+](=O)[O-])o2)c1`, in assay [1], the concentration for half-maximal inhibition (IC50) was 20 nM and the 90% effect concentration (IC90) was determined as 20 nM.
As to `O=C1C(Br)=Cc2cccc3cccc1c23`, in assay [1], the half-inhibitory concentration (IC50) was 60 nM and the IC90 turned out to be 170 nM.
For `COC(=O)C1CC(=O)N(c2ccc(OCc3ccccc3Cl)cc2)C1` (stereo not given), in that order: 340 nM and 2630 nM.
In the case of `S=c1nc[nH]c2nc[nH]c12`, in assay [1], the IC50 is 1030 nM and the IC90 came out at 1520 nM.
Take `CCOC(=O)CNC(=O)[C@H](Cc1ccccc1)NC(=O)OCc1ccccc1` (HELM PEPTIDE1{[O=C(OCc1ccccc1)[*:2]].F.G.[CCO[*:1]]}$$$$V2.0): in assay [1], the half-maximal inhibitory concentration (IC50) is 1080 nM and the 90% effect concentration (IC90) came to 2500 nM.
The corresponding values for `Cc1nn2c(NCc3ccccn3)cc(C(C)C)nc2c1-c1ccccc1` are 640 nM and 1200 nM.
For `COC(=O)C(C)Oc1ccc(-c2nccc(-c3ccccn3)n2)cc1` (stereo not given), in that order: 1640 nM and 4320 nM.
The corresponding values for `c1ccc(/N=C2\N=C(Nc3ccccn3)c3ccccc32)nc1` are 20 nM and 30 nM.
With `Nc1c(C(=O)NC2CCCCC2)nsc1C(=O)OCC(=O)NC1CCCCC1`, in assay [1], the IC50 is 450 nM and the IC90 came out at 1230 nM.
For `O=C(/C=C\c1cccs1)N1CCN(Cc2ccc3c(c2)OCO3)CC1`, in that order: 140 nM and 330 nM.
The corresponding values for `CCOC(=O)COn1c2c(c3c4no[n+]([O-])c4ccc31)CCCC2` are 1580 nM and 3040 nM.
For the compound `COc1cc(NC(=O)C/C(C)=N/NC(=O)c2ccccn2)c(OC)cc1Cl`, in assay [1], the IC50 was 2060 nM and the 90% effect concentration (IC90) was found to be 6770 nM.
The corresponding values for `COC(=O)c1cc(=O)n(-c2ccc(F)cc2)c(=Nc2ccc(F)cc2)s1` are 300 nM and 1100 nM.
For the compound `Oc1ccccc1/C=N/Nc1ccnc(SCc2ccccc2)n1`, in assay [2], the growth inhibition is 0.48% (inactive).
`O=C(CSc1nc2ccccc2c(=O)[nH]1)NC1CCCCC1`: in assay [1], the IC50 is below 10 nM and the IC90 is below 10 nM.
For the compound `COC(=O)CCc1nc2c(C#N)c(-c3ccc(Cl)cc3)ccn2n1`, in assay [1], the IC50 was 840 nM and the IC90 was found to be 3540 nM.
For the compound `COC(=O)C(Nc1nc(SCC(=O)NC2CCCCC2)nc2ccccc12)c1ccccc1` (stereo not given), the growth inhibition in assay [2] was 3.49% (inactive).
On to `CCOC1OC(=O)C(Cl)=C1Nc1ccccc1C` (stereo not given), for which, in assay [1], the IC50 was 2660 nM and the 90% effect concentration (IC90) was 4410 nM.
